Source: patent US10464957B2, “Oxidized lipids and methods of use thereof” (Vascular Biogenics Ltd., priority 2014, dated 2019)

Key:
nephrectomized rats = experiment: 5/6 nephrectomy chronic renal disease rat model (focal and segmental glomerulosclerosis); format: in vivo, Sprague Dawley (SD) Rats
Procedure: Male Sprague Dawley (SD) Rats (Harlan Laboratories, Israel) with an initial weight of 200 g were housed 2-3 per cage in IVC cages in dedicated HVAC (heat, ventilation, air conditioning animal facility at a temperature of 22±2° C. and RH (relative humidity) of 55±15%). Temperature and humidity were monitored continuously. The facility had no exposure to outside light and was maintained on automatic alternating cycles of 12 hours of light and 12 hours of dark. Animals were provided with a commercial rodent diet (Harlan Teklad TRM Rat/Mouse Diet) ad libitum and allowed free access to autoclaved water, supplied to each cage via polysulphone bottles with stainless steel sipper tubes. All animal work was approved by the Animal Care and Use Committee of Israel (IL-13-03-027).
Rats were divided into three groups: (1) Healthy rats (n=3) in group A, (2) Sham group—subjected to chirurgical process but without kidney mass reduction (n=3) in group B, and (3) the rest were induced with chronic renal failure (n=32). Chronic renal failure was induced by a two stage (5/6) nephrectomy (Nx), with subtraction firstly of about ⅔ of the left kidney by left flank incision and, one week later, complete removal of the right kidney. General anesthesia consisted of intraperitoneal injection of ketamine 100 mg/kg and xylazine 20 mg/kg (0.85 ml ketamine+0.15 ml xylazine for each ml preparation; 1 μl/g BW was injected I.P).
One week following the second surgery, rats were randomly assigned to the following experimental groups:
Nephrectomized, orally administered with VB-703 4 mg/kg (n=8); and
Nephrectomized, orally administered with telmisartan 10 mg/kg as positive control (n=8).
Body weight (BW) was monitored throughout the study and rats were treated by oral gavage according to their body weight for 7 weeks. Rats were sacrificed by CO2 inhalation 8 weeks from removal of the right kidney (2nd surgery).
Proteinuria and albuminuria was determined in urine specimens, collected during a 24-hour period, from animals housed in cages at 4 weeks (3 w of treatment) and 8 weeks (7 w of treatment) after the subtotal nephrectomy (2nd surgery). Urine samples were analyzed for: glucose, urea, sodium, potassium, creatinine, total protein, and albumin.
Upon sacrifice, at 8 weeks, kidneys were collected, weighed and fixed in 4% formaldehyde.
For light microscopy, paraffin-embedded tissue slides of 4 μm were stained with Periodic Acid-Schiff (PAS) reagent, Masson's Trichrome and Hematoxylin & Eosin.
Glomerular sclerosis index. Glomerulosclerosis was assessed by PAS-stained sections using a semiquantitative scoring system. The extent of glomerulosclerosis was evaluated by examining mostly 100 randomly selected glomeruli at a magnification of ×400 and applying a score system according to the percentage of sclerosed glomerular area. The score was graded from 0 to 4: (0=0% area; 1=1-25%; 2=26-50%, 3=51-75%, 4=76% and above). The mean of all scored glomeruli was presented. Moreover, the extent of global and segmental glomerulosclerosis was evaluated in the same glomeruli, where <80% sclerosis was referred to as segmental and >80% was referred to as global.
Glomerular area. The glomerular area of mostly 100 randomly selected glomeruli at a magnification of ×100 was quantitated by counting squares covered by glomeruli area using a grid and the mean glomeruli area was calculated.
Renal tissues were fixed in 4% formaldehyde and embedded in paraffin. The paraffin-embedded tissues were then cut to form tissue slides of 4 μm. Immunohistochemistry of the paraffin-embedded tissue slides was analyzed using antibodies in the following concentration: monoclonal mouse anti rat CD-68 (ED-1, Serotec MCA341) 1:25. For quantitation of interstitial CD68+ staining, the number of positive cells was counted in 20 randomly selected non-overlapping fields per animal, and the mean value was presented. […]

[1] = system: human monocytes (primary CD14+); experiment: Chemokine-induced cell migration trans-well assay; format: cell-based; settings: RANTES 100 ng/ml and MCP-1 50 ng/ml, 2-4 hours, FACS count
Procedure: Venous blood samples were obtained from healthy male donors in compliance with the Institutional Review Board at the Sheba Medical Center, Ramat Gan, Israel. PBMCs were isolated on Ficoll-Paque PLUS (GE Healthcare, Uppsala, Sweden) using 50 ml Leucosep tubes (Greiner Bio-One, Frickenhausen, Germany). Cells were washed in PBS (Kibbutz Beit Haemek, Israel) and incubated at 4° C. for 15 minutes in a buffer containing PBS and 0.5% bovine serum albumin (BSA) with human CD14 microbeads (Miltenyi Biotec, Bergisch Gladbach, Germany).
Cells (10^6/ml) were pretreated for 20 min with VB-201 or VB-701 at the doses indicated in FIG. 5, or with solvent (Sol).
To test for chemokine-induced cell migration, RANTES (100 ng/ml; Cat. No. 300-06, PeproTech, Israel) and MCP-1 (50 ng/ml; Cat. No. 300-04, PeproTech, Israel) were dissolved in RPMI-1640 medium supplemented with 0.5% fetal bovine serum (FBS) and placed at the lower chamber of QCM 24-well, […], migration assay plates (Corning-Costar, Corning, N.Y.). Cells (3×10^5) were seeded in the upper chamber and incubated for 2-4 hours. Subsequently, the number of cells which migrated to the lower compartment was determined by fluorescence-activated cell sorting (FACS).

[2] = system: MCP-1-induced signaling in human monocytes (THP-1 cell line); experiment: MCP-1-induced signaling, western blot; format: cell-based; settings: 20 min pretreatment, 50 ng/ml MCP1, THP-1
Procedure: THP-1 cells (10^6/ml) were pretreated for 20 min with VB-201 or VB-701 at the doses indicated in FIG. 4, or with solvent, followed by activation with 50 ng/ml MCP1, or were untreated (“Unt”). Cells were washed and resuspended in lysis buffer containing 1:100 dithiothreitol (DTT), phosphatase and protease inhibitors (Thermo Scientific). Samples were loaded onto a precast Criterion TGX gel (Bio-Rad, Hemel Hempstead, UK) and transferred onto nitrocellulose membrane. Blots were blocked with 5% milk or BSA in Tris buffered saline and Tween 20 (TBST) for 1 h, followed by incubation with primary and secondary antibodies. Membranes were developed using an ECL kit (Thermo Scientific). The following antibodies were used for immunoblotting:
Primary antibodies: p-ERK1/2 (Cat. No. M8159; 1:10000) was purchased from Sigma (Israel). p-AKT (Cat. No. 4060; 1:1000) was purchased from Cell Signaling Technology (Danvers, Mass.). αTubulin served as a loading control and was purchased from Sigma (Israel).
Secondary antibodies: HRP donkey anti-rabbit (1:5000) and HRP goat anti-mouse (1:3000) were from Jackson ImmunoResearch (West Grove, Pa., USA). HRP donkey anti-goat (1:5000) was from Santa Cruz Biotechnology.

[3] = Nx rats, VB-703 4 mg/kg, Telmisartan 10 mg/kg, 8 weeks, Mean ± S.E
[4] = VB-703 4 mg/kg, telmisartan 10 mg/kg, oral 7 weeks, vs Nx PBS 0.5% Eth

Row | Structure (SMILES) | Glomerular sclerosis Global % (nephrectomized rats; [3]) [%] | Glomerular sclerosis Global & Segmental % (nephrectomized rats; [3]) [%] | Glomerular sclerosis Segmental % (nephrectomized rats; [3]) [%] | urinary albumin/creatinine/day ratio (nephrectomized rats; VB-703 4 mg/kg oral, at the termination of the study (8 weeks)) | glomerular and interstitial monocyte/macrophage infiltration (CD68 positive cells) (nephrectomized rats; VB-703 4 mg/kg, telmisartan 10 mg/kg, 8 weeks) | reduction of damaged glomeruli percent (nephrectomized rats; [4]) [%] | reduction of sclerotic glomeruli (nephrectomized rats; [4]) [%] | chemokine-induced migration of human monocytes [1] | formation of p-AKT and p-ERK induced by MCP1 [2]
1 | CCCCCCCCCCC(CCCCCCCC)COC[C@H](COP(=O)([O-])OCC[n+]1ccccc1)OCCCCC(=O)O (stereo partly drawn) [VB-703, (R)-1-(2′-octyl)dodecyl-2-(4′-carboxy)butyl-sn-glycero-3-phosphoric acid pyridiniumethyl ester] | 1.9 ± 1.55 | 24.7 ± 3.77 | 22.9 ± 2.83 | significantly improved | did not produce a significant effect | 38 | 49 | – | –
2 | CCCCCCCCCCCCCCCCOCC(COP(=O)([O-])OCC[N+](C)(C)C)OCCCCC(=O)O (stereo not drawn) [VB-201, 1-hexadecyl-2-(4′-carboxy)butyl-glycero-3-phosphocholine, reference compound] | – | – | – | – | – | – | – | inhibit | inhibit
